This passage reports IC50 and EC50 results from patent US9365541B2, “Compounds for use in the treatment of parasitic diseases” (IRBM—SCIENCE PARK S.P.A., priority 2012, dated 2016).

Each structure is given as a SMILES string.

One assay concerns the target T1, human HDAC1 (Homo sapiens, UniProt Q13547).
T1 construct: made in house; host or cells: HeLa (ATCC CCL-2), mammalian cells
Description: Homo sapiens HDAC1 inhibition assay (Fluor-de-Lys, enzymatic). It is filed as biochemical. The note with it: human HDAC enzymatic assay; read-out: hHDAC IC50. The essentials:
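Product developed with trypsin developer containing 2 μM TSA to stop the reaction; fluorescence measures deacetylase activity, inversely related to inhibition.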

The test system of assay [1] is Plasmodium falciparum 3D7. Nature of the assay: P. falciparum growth inhibition assay (Pf-LDH). It is filed as cell-based. Particulars: Plasmodium falciparum, Erythrocyte; P. falciparum 3D7 infected erythrocytes, 72 h incubation, PfLDH readout. The essentials:
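P. falciparum 3D7 (chloroquine-sensitive) at 0.25% parasitemia and 2% hematocrit was incubated with compound for 72 h at 37° C under 4% CO2/3% O2/93% N2. After freeze-thaw, PfLDH activity was read at 650 nm with lactate/APAD/NBT/diaphorase mix (pH 8.0).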

T1 sequence (Q13547 whole entry): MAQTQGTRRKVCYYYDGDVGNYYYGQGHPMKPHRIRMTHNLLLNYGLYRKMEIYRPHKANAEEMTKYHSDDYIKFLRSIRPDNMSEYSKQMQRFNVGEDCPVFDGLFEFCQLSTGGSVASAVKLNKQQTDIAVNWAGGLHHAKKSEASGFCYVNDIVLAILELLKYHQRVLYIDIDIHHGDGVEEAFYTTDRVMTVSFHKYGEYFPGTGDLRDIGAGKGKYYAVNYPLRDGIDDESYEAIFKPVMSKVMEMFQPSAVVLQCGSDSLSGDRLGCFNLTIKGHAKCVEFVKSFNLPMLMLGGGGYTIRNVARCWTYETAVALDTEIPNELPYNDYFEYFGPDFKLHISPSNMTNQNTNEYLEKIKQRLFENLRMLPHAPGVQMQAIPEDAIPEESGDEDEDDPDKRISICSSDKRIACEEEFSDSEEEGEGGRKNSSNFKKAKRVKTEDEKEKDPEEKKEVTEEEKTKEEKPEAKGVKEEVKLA

For `CNC(=O)CCCCC[C@H](NC(=O)c1cnn(C)c1)c1ncc(-c2ccc(-c3ccn(C)n3)cc2)o1` [Entry 224, (S)-1-methyl-N-(1-(5-(4-(1-methyl-1H-pyrazol-3-yl)phenyl)oxazol-2-yl)-7-(methylamino)-7-oxoheptyl)-1H-pyrazole-4-carboxamide], the IC50 (usually the concentration needed to halve the response being measured) at human HDAC1 was greater than 5 µM. Moreover, in assay [1], the concentration for a half-maximal effect (EC50) (in general, the midpoint of the concentration-response curve) lay within 1 to 5 µM.
The like results for `CNC(=O)CCCCC[C@H](NC(=O)C1CCN(C)CC1)c1ncc(-c2ccc(-n3cccn3)cc2)[nH]1` [Entry 162] were, in that order, greater than 5 µM and greater than 5 µM.
On the same counts, the results for `CNC(=O)CCCCC[C@H](NC(=O)Cn1ccnn1)c1ncc(-c2ccc(-n3cccn3)cc2)[nH]1` [Entry 62, (S)-7-(2-(1H-1,2,3-triazol-1-yl)acetamido)-7-(5-(4-(1H-pyrazol-1-yl)phenyl)-1H-imidazol-2-yl)-N-methylheptanamide] are greater than 5 µM and greater than 5 µM.
Turning to `CNC(=O)CCCCC[C@H](NC(=O)c1cncs1)c1ncc(-c2ccc3ccccc3c2F)[nH]1` [Entry 137, (S)-N-(1-(5-(1-fluoronaphthalen-2-yl)-1H-imidazol-2-yl)-7-(methylamino)-7-oxoheptyl)thiazole-5-carboxamide], the IC50 at human HDAC1 was greater than 5 µM. In addition, in assay [1], the concentration giving a half-maximal response (EC50) is greater than 5 µM.
Regarding `CNC(=O)CCCCC[C@H](NC(=O)C1CCC1(F)F)c1ncc(-c2ccc(-c3ccn(C)n3)cc2)[nH]1` (stereo partly drawn) [Entry 91, 2,2-difluoro-N-((S)-1-(5-(4-(1-methyl-1H-pyrazol-3-yl)phenyl)-1H-imidazol-2-yl)-7-(methylamino)-7-oxo-heptyl)cyclobutane-carboxamide], at human HDAC1, the IC50 was greater than 5 µM. This compound had an EC50 in assay [1] greater than 5 µM.
On to `CNC(=O)CCCCC[C@H](NC(=O)Cn1nnc(N2CCCC2)n1)c1ncc(-c2ccc3ccccc3c2)[nH]1` [Entry 20], for which the half-inhibitory concentration (IC50) on human HDAC1 is less than 1 µM. In assay [1], this compound came in with a 50% effective concentration (EC50) of 1 to 5 µM.
On the same counts, the results for `CNC(=O)CCCCC[C@H](NC(=O)c1cc(C)n(C)n1)c1ncc(-c2ccc(-c3ccn(C)n3)cc2)[nH]1` [Entry 216, (S)-1,5-dimethyl-N-(1-(5-(4-(1-methyl-1H-pyrazol-3-yl)phenyl)-1H-imidazol-2-yl)-7-(methylamino)-7-oxoheptyl)-1H-pyrazole-3-carboxamide] are greater than 5 µM and 1 to 5 µM.
The like results for `CNC(=O)CCCCC[C@H](NC(=O)c1cnc(CN2CCCC2)s1)c1ncc(-c2ccc3ccncc3c2)[nH]1` [Entry 65, (S)-N-(1-(5-(isoquinolin-7-yl)-1H-imidazol-2-yl)-7-(methylamino)-7-oxoheptyl)-2-(pyrrolidin-1-ylmethyl)thiazole-5-carboxamide] were, in that order, less than 1 µM and less than 1 µM.
The like results for `CNC(=O)CCCCC[C@H](NC(=O)c1cncs1)c1ncc(-c2cc3ccccc3nc2Cl)[nH]1` [Entry 80, (S)-N-(1-(5-(2-chloroquinolin-3-yl)-1H-imidazol-2-yl)-7-(methylamino)-7-oxoheptyl)thiazole-5-carboxamide] were, in that order, 1 to 5 µM and 1 to 5 µM.
For `CNC(=O)CCCCC[C@H](NC(=O)Cc1nc(-c2ccccc2)cs1)c1ncc(-c2ccc3ccccc3c2)[nH]1` [Entry 63], the IC50 on human HDAC1 was 1 to 5 µM. The same compound yielded an EC50 in assay [1] of 1 to 5 µM.
For `CNC(=O)CCCCC[C@H](NC(=O)c1cncs1)c1ncc(-c2ccc(CN(C)C)cc2)[nH]1` [Entry 78, (S)-N-(1-(5-(4-((dimethyl-amino)methyl)phenyl)-1H-imidazol-2-yl)-7-(methylamino)-7-oxoheptyl)thiazole-5-carboxamide], the IC50 on human HDAC1 is 1 to 5 µM. Further, the EC50 in assay [1] is greater than 5 µM.
`CNC(=O)CCCCC[C@H](NC(=O)C1CN(C)C1)c1ncc(-c2cc3ccccc3nc2OC)[nH]1` [Entry 98, (S)-N-(1-(5-(2-methoxyquinolin-3-yl)-1H-imidazol-2-yl)-7-(methylamino)-7-oxoheptyl)-1-methylazetidine-3-carboxamide]: the half-inhibitory concentration (IC50) at human HDAC1 was 1 to 5 µM. Further, the 50% effective concentration (EC50) in assay [1] was 1 to 5 µM.
For `CNC(=O)CCCCC[C@H](NC(=O)c1cnn(C(C)C)c1)c1ncc(-c2ccc(-c3ccn(C)n3)cc2)[nH]1` [Entry 50, (S)-1-isopropyl-N-(1-(5-(4-(1-methyl-1H-pyrazol-3-yl)phenyl)-1H-imidazol-2-yl)-7-(methylamino)-7-oxoheptyl)-1H-pyrazole-4-carboxamide], the half-inhibitory concentration (IC50) at human HDAC1 lay in the range of 1 to 5 µM. The compound further came in with an EC50 in assay [1] of less than 1 µM.
`CNC(=O)CCCCC[C@H](NC(=O)c1cc(C)nn1C)c1ncc(-c2cc3ccccc3nc2OC)[nH]1` [Entry 9, (S)-N-(1-(5-(2-methoxyquinolin-3-yl)-1H-imidazol-2-yl)-7-(methylamino)-7-oxoheptyl)-1,3-dimethyl-1H-pyrazole-5-carboxamide]: on human HDAC1, the IC50 was less than 1 µM. In addition, the EC50 in assay [1] fell in the range of 1 to 5 µM.
Take `CNC(=O)CCCCC[C@H](NC(=O)c1cc(C(C)C)on1)c1ncc(-c2ccc3ccncc3c2)[nH]1` [Entry 189, (S)-5-isopropyl-N-(1-(5-(isoquinolin-7-yl)-1H-imidazol-2-yl)-7-(methylamino)-7-oxoheptyl)isoxazole-3-carboxamide]: the IC50 at human HDAC1 lay within 1 to 5 µM. The EC50 in assay [1] lay within 1 to 5 µM.
Turning to `CNC(=O)CCCCC[C@H](NC(=O)c1cncs1)c1ncc(-c2cccc(CN)c2)[nH]1` [Entry 35, (S)-N-(1-(5-(3-(amino-methyl)phenyl)-1H-imidazol-2-yl)-7-(methylamino)-7-oxoheptyl)thiazole-5-carboxamide], the half-inhibitory concentration (IC50) at human HDAC1 was 1 to 5 µM. This compound also returned a half-maximal effective concentration (EC50) in assay [1] of less than 1 µM.
On to `CNC(=O)CCCCC[C@H](NC(=O)c1cscn1)c1ncc(-c2ccc(-c3ccn(C)n3)cc2)[nH]1` [Entry 209, (S)-N-(1-(5-(4-(1-methyl-1H-pyrazol-3-yl)phenyl)-1H-imidazol-2-yl)-7-(methylamino)-7-oxoheptyl)thiazole-4-carboxamide], for which the concentration for half-maximal inhibition (IC50) at human HDAC1 was greater than 5 µM. The EC50 in assay [1] is greater than 5 µM.
On to `CNC(=O)CCCCC[C@H](NC(=O)c1cnsn1)c1ncc(-c2ccc3ccccc3c2)[nH]1` [Entry 45, (S)-N-(7-(methylamino)-1-(5-(naphthalen-2-yl)-1H-imidazol-2-yl)-7-oxoheptyl)-1,2,5-thiadiazole-3-carboxamide], for which the half-maximal inhibitory concentration (IC50) at human HDAC1 was 1 to 5 µM. The same compound showed an EC50 in assay [1] greater than 5 µM.
As for `CNC(=O)CCCCC[C@H](NC(=O)c1cncs1)c1ncc(-c2cccc(-c3cc[nH]n3)c2)[nH]1` [Entry 188, (S)-N-(1-(5-(3-(1H-pyrazol-3-yl)phenyl)-1H-imidazol-2-yl)-7-(methylamino)-7-oxoheptyl)thiazole-5-carboxamide], at human HDAC1, the half-maximal inhibitory concentration (IC50) was greater than 5 µM. The EC50 in assay [1] is 1 to 5 µM.
For the compound `CNC(=O)CCCCC[C@H](NC(=O)c1ccc(-n2cnnn2)cc1)c1ncc(-c2ccc3ccccc3c2)[nH]1` [Entry 117, (S)-N-(7-(methylamino)-1-(5-(naphthalen-2-yl)-1H-imidazol-2-yl)-7-oxoheptyl)-4-(1H-tetrazol-1-yl)benzamide], at human HDAC1, the half-maximal inhibitory concentration (IC50) was 1 to 5 µM. The compound further displayed an EC50 in assay [1] of 1 to 5 µM.
Turning to `CNC(=O)CCCCC[C@H](NC(=O)c1cncs1)c1ncc(-c2ccc(-n3cccn3)cc2)[nH]1` [Entry 172, (S)-N-(1-(5-(4-(1H-pyrazol-1-yl)phenyl)-1H-imidazol-2-yl)-7-(methylamino)-7-oxoheptyl)thiazole-5-carboxamide], the concentration for half-maximal inhibition (IC50) on human HDAC1 was in the range of 1 to 5 µM. Also, in assay [1], the EC50 was less than 1 µM.
